From patent US20080286394A1, “NOVEL HERBAL FORMULATION AS BRAIN TONIC” (priority 2003, published 2008) come the findings set out here.

Values joined by “and” are separate entries in the source; they are usually repeats but may differ in a detail not shown here. Equal values may be shown once. Marks after values point to notes of the source that are not given here.

The subject of this test is impairment of memory acquisition in step-down test in mice. In words: Passive avoidance task (step-down test), scopolamine-induced impairment of memory acquisition. The format is in vivo. The following applies: scopolamine 0.4 mg/kg alone (amnesia-inducing agent).

Turning to `CN1[C@@H]2C[C@@H](OC(=O)[C@H](CO)c3ccccc3)C[C@H]1[C@@H]1O[C@@H]12` [Scopalamine, scopolamine], the “Latency (sec)” value was 7.7 ± 0.04^c sec and 7.8 ± 0.03^c sec and 7.8 ± 0.04^c sec; the No of mistakes was 66.8 ± 8.9^c and 65.3 ± 8.6^c and 69.8 ± 8.9^c.
